Data: US20260125382A1, “COMPOUNDS FOR INHIBITING OR DEGRADING CDK2 AND/OR CDK9 AND MEDICINAL USE THEREOF” (KOREA RESEARCH INSTITUTE OF CHEMICAL TECHNOLOGY, priority 2022, published 2026)

Assays:
CDK2 = target: T1, CDK2 (Homo sapiens, UniProt P24941); assay: CDK protein degradation activity (Western blotting), CDK2; type: cell-based; conditions: MDA-MB-231 cells, 16 hours, Western blot
T1 construct: endogenous in cells; host or cells: MDA-MB-231
Method in brief: (§1)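 MDA-MB-231 cells treated 16 h with compound at 100 nM, 1 μM or 10 μM, with DMSO as control. Lysates run on SDS-PAGE and immunoblotted for CDK2, CDK9 and tubulin; band levels quantified by densitometry.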

CDK9 = target: T2, CDK9 (Homo sapiens, UniProt P50750); assay: CDK protein degradation activity (Western blotting), CDK9; type: cell-based; conditions: MDA-MB-231 cells, 16 hours, Western blot
T2 construct: endogenous in cells; host or cells: MDA-MB-231
Method in brief: as §1

T2 sequence (P50750 whole entry): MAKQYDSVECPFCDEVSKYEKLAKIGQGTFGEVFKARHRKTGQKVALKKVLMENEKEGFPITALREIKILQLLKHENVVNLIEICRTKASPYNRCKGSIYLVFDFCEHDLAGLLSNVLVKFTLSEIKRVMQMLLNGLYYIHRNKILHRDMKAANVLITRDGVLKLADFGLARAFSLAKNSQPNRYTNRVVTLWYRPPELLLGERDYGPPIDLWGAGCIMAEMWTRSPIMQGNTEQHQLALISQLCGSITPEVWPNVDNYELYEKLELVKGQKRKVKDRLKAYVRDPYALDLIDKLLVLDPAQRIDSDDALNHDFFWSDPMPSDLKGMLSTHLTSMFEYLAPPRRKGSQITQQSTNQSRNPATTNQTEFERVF

Compound	Enzyme degradation CDK2 (% remaining) @ 0.1 μM (CDK2)	Enzyme degradation CDK2 (% remaining) @ 1 μM (CDK2)	Enzyme degradation CDK2 (% remaining) @ 10 μM (CDK2)	Enzyme degradation CDK9 (% remaining) @ 0.1 μM (CDK9)	Enzyme degradation CDK9 (% remaining) @ 1 μM (CDK9)	Enzyme degradation CDK9 (% remaining) @ 10 μM (CDK9)
Cc1cccc(C(=O)NC2CC(n3cnc4c(Nc5ccc(N6CCN(CC7CCN(C(=O)C8CCN(c9ccc%10c(c9)C(=O)N([C@H]9CCC(=O)NC9=O)C%10=O)CC8)CC7)CC6)cc5)ncnc43)C2)n1 (stereo partly drawn) [Compound 379, N-((1s,3s)-3-(6-((4-(4-((1-(1-(2-(2,6-dioxopiperidin-3-yl)-1,3-dioxoisoindolin-5-yl)piperidin-4-carbonyl)piperidin-4-yl)methyl)piperazin-1-yl)phenyl)amino)-9H-purin-9-yl)cyclobutyl)-6-methylpicolinamide]	40/40/40%	40/40/40%	40/40/40%	0/0/0%	0/0/0%	0/0/0%
Cc1cccc(C(=O)NC2CC(n3cnc4c(Nc5ccc(N6CCN(CCC7CCN(c8ccc9c(c8)C(=O)N([C@H]8CCC(=O)NC8=O)C9=O)CC7)CC6)cc5)ncnc43)C2)n1 (stereo partly drawn) [Compound 380, N-((1s,3s)-3-(6-((4-(4-(2-(1-(2-(2,6-dioxopiperidin-3-yl)-1,3-dioxoisoindolin-5-yl)piperidin-4-yl)ethyl)piperazin-1-yl)phenyl)amino)-9H-purin-9-yl)cyclobutyl)-6-methylpicolinamide]	40%	40%	30%	0/0/0%	0/0/0%	0/0/0%
Cc1cccc(C(=O)NC2CC(n3cnc4c(Nc5ccc(N6CCN(CCC7CCN(c8cc9c(cc8F)C(=O)N([C@H]8CCC(=O)NC8=O)C9=O)CC7)CC6)cc5)ncnc43)C2)n1 (stereo partly drawn) [Compound 381, N-((1s,3s)-3-(6-((4-(4-(2-(1-(2-(2,6-dioxopiperidin-3-yl)-6-fluoro-1,3-dioxoisoindolin-5-yl)piperidin-4-yl)ethyl)piperazin-1-yl)phenyl)amino)-9H-purin-9-yl)cyclobutyl)-6-methylpicolinamide]	30%	20%	20%	0/0/0%	0/0/0%	0/0/0%
Cc1cccc(C(=O)N[C@H]2C[C@@H](n3cnc4c(Nc5ccc(N6CCN(CCC7CCN(c8ccc9nnn([C@H]%10CCC(=O)NC%10=O)c(=O)c9c8)CC7)CC6)cc5)ncnc43)C2)n1 [Compound 382, N-((1s,3s)-3-(6-((4-(4-(2-(1-(3-(2,6-dioxopiperidin-3-yl)-4-oxo-3,4-dihydrobenzo[d][1,2,3]triazin-6-yl)piperidin-4-yl)ethyl)piperazin-1-yl)phenyl)amino)-9H-purin-9-yl)cyclobutyl)-6-methylpicolinamide]	30%	30%	50%	0/0/0%	0/0/0%	0/0/0%
O=C1CC[C@H](N2C(=O)c3ccc(N4CC(C(=O)N5CCC6(CC5)CC(N5CCN(c7ccc(Nc8ncnc9c8ncn9C8CC(NC(=O)c9c(Cl)cccc9Cl)C8)cc7)CC5)C6)C4)cc3C2=O)C(=O)N1 (stereo partly drawn) [Compound 383, 2,6-dichloro-N-((1s,3s)-3-(6-((4-(4-(7-(1-(2-(2,6-dioxopiperidin-3-yl)-1,3-dioxoisoindolin-5-yl)azetidin-3-carbonyl)-7-azaspiro[3.5]nonan-2-yl)piperazin-1-yl)phenyl)amino)-9H-purin-9-yl)cyclobutyl)benzamide]	40/40/40%	40/40/40%	40/40/40%	0/0/0%	0/0/0%	0/0/0%
Cc1cccc(C(=O)NC2CC(n3cnc4c(Nc5ccc(N6CCN(C7CC8(CCN(c9ccc%10c(c9)C(=O)N([C@H]9CCC(=O)NC9=O)C%10=O)CC8)C7)CC6)cc5)ncnc43)C2)n1 (stereo partly drawn) [Compound 384, N-((1s,3s)-3-(6-((4-(4-(7-(2-(2,6-dioxopiperidin-3-yl)-1,3-dioxoisoindolin-5-yl)-7-azaspiro[3.5]nonan-2-yl)piperazin-1-yl)phenyl)amino)-9H-purin-9-yl)cyclobutyl)-6-methylpicolinamide]	20/20/20%	20/20/20%	20/20/20%	0/0/0%	0/0/0%	0/0/0%
Cc1cccc(C(=O)N[C@H]2C[C@@H](n3cnc4c(Nc5ccc(N6CCN(C7CC8(CCN(c9ccc%10nnn([C@H]%11CCC(=O)NC%11=O)c(=O)c%10c9)CC8)C7)CC6)cc5)ncnc43)C2)n1 [Compound 386, N-((1s,3s)-3-(6-((4-(4-(7-(3-(2,6-dioxopiperidin-3-yl)-4-oxo-3,4-dihydrobenzo[d][1,2,3]triazin-6-yl)-7-azaspiro[3.5]nonan-2-yl)piperazin-1-yl)phenyl)amino)-9H-purin-9-yl)cyclobutyl)-6-methylpicolinamide]	20%	10%	10%	0/0/0%	0/0/0%	0/0/0%
Cc1cccc(C(=O)NC2CC(n3cnc4c(Nc5ccc(N6CCN(CCC7CCN(C(=O)C8CN(c9ccc%10c(c9)C(=O)N([C@H]9CCC(=O)NC9=O)C%10=O)C8)CC7)CC6)cc5)ncnc43)C2)n1 (stereo partly drawn) [Compound 388, N-((1s,3s)-3-(6-((4-(4-(2-(1-(1-(2-(2,6-dioxopiperidin-3-yl)-1,3-dioxoisoindolin-5-yl)azetidin-3-carbonyl)piperidin-4-yl)ethyl)piperazin-1-yl)phenyl)amino)-9H-purin-9-yl)cyclobutyl)-6-methylpicolinamide]	40/40/40%	40/40/40%	40/40/40%	0/0/0%	0/0/0%	0/0/0%

Results, then the molecule that gave them:

Enzyme degradation CDK2 (% remaining) @ 0.1 μM (CDK2)	Enzyme degradation CDK2 (% remaining) @ 1 μM (CDK2)	Enzyme degradation CDK2 (% remaining) @ 10 μM (CDK2)	Enzyme degradation CDK9 (% remaining) @ 0.1 μM (CDK9)	Enzyme degradation CDK9 (% remaining) @ 1 μM (CDK9)	Enzyme degradation CDK9 (% remaining) @ 10 μM (CDK9)	Compound
40%	30%	30%	0/0/0%	0/0/0%	0/0/0%	Cc1cccc(C(=O)N[C@H]2C[C@@H](n3cnc4c(Nc5ccc(N6CCN(C7CC8(CCN(c9cc%10c(cc9F)C(=O)N([C@H]9CCC(=O)NC9=O)C%10=O)CC8)C7)CC6)cc5)ncnc43)C2)n1 [Compound 385, N-((1s,3s)-3-(6-((4-(4-(7-(2-(2,6-dioxopiperidin-3-yl)-6-fluoro-1,3-dioxoisoindolin-5-yl)-7-azaspiro[3.5]nonan-2-yl)piperazin-1-yl)phenyl)amino)-9H-purin-9-yl)cyclobutyl)-6-methylpicolinamide]
50%	40%	40%	20%	0%	0%	Cc1cccc(C(=O)N[C@H]2C[C@@H](n3cnc4c(Nc5ccc(N6CCN(C7CC8(CCN(C(=O)C9CN(c%10ccc%11c(c%10)C(=O)N(C%10CCC(=O)NC%10=O)C%11=O)C9)CC8)C7)CC6)cc5)ncnc43)C2)n1 (stereo partly drawn) [Compound 387, N-((1s,3s)-3-(6-((4-(4-(7-(1-(2-(2,6-dioxopiperidin-3-yl)-1,3-dioxoisoindolin-5-yl)azetidin-3-carbonyl)-7-azaspiro[3.5]nonan-2-yl)piperazin-1-yl)phenyl)amino)-9H-purin-9-yl)cyclobutyl)-6-methylpicolinamide]
40%	30%	30%	0/0/0%	0/0/0%	0/0/0%	Cc1cccc(C(=O)N[C@H]2C[C@@H](n3cnc4c(Nc5ccc(N6CCN(CCC7CCN(C(=O)C8CCN(c9ccc%10c(c9)C(=O)N([C@H]9CCC(=O)NC9=O)C%10=O)CC8)CC7)CC6)cc5)ncnc43)C2)n1 [Compound 389, N-((1s,3s)-3-(6-((4-(4-(2-(1-(1-(2-(2,6-dioxopiperidin-3-yl)-1,3-dioxoisoindolin-5-yl)piperidin-4-carbonyl)piperidin-4-yl)ethyl)piperazin-1-yl)phenyl)amino)-9H-purin-9-yl)cyclobutyl)-6-methylpicolinamide]
20/20/20%	20/20/20%	20/20/20%	10%	0%	0%	O=C1CC[C@H](N2C(=O)c3ccc(N4CCC(CN5CCN(c6ccc(Nc7ncnc8c7ncn8[C@H]7C[C@@H](NC(=O)c8cccc(F)n8)C7)cc6)CC5)CC4)cc3C2=O)C(=O)N1 [Compound 390, N-((1s,3s)-3-(6-((4-(4-((1-(2-(2,6-dioxopiperidin-3-yl)-1,3-dioxoisoindolin-5-yl)piperidin-4-yl)methyl)piperazin-1-yl)phenyl)amino)-9H-purin-9-yl)cyclobutyl)-6-fluoropicolinamide]
